Like-named read-outs stand apart in the source and are kept apart here.
What was measured:
[1] = target: T1, Human Aryl Hydrocarbon Receptor (AHR) (Homo sapiens, UniProt P35869); assay: AHR agonist reporter assay in human cell line (INDIGO luciferase reporter); format: cell-based; settings: reporter cells; for EC50: 24 hours incubation; for AHR % activation to Tapinarof at 1 μM: 24 hours, value in brackets;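 on all read-outs here: firefly luciferase luminescence read on a plate reader, values normalized against positive and negative controls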
T1 construct: purchased INDIGO Bioscience IB06001-32; host or cells: AHR Reporter Cell (proprietary kit cells)
T1 sequence (P35869 11-848): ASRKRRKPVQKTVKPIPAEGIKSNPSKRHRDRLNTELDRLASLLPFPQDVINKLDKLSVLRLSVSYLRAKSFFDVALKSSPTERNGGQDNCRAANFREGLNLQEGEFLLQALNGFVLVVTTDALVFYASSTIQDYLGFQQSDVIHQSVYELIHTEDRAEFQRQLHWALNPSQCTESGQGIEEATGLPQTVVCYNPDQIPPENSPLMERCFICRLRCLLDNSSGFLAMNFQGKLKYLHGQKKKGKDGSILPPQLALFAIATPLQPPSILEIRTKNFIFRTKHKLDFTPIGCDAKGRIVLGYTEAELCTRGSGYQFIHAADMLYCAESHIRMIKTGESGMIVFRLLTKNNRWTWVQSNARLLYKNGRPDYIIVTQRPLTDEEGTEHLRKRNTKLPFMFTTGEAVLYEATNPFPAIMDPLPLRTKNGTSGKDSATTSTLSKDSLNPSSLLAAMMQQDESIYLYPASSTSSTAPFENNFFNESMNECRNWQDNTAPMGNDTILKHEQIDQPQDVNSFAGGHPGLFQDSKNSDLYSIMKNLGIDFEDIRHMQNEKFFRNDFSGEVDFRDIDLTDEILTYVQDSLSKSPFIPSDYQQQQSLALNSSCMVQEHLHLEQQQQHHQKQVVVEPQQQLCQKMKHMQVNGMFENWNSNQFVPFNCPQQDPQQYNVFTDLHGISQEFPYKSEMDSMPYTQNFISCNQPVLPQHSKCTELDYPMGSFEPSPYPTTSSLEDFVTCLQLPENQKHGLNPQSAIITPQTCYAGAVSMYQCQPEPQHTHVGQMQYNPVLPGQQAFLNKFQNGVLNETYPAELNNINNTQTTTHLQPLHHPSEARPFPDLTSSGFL
Description: The AHR reporter assay was performed following the protocol of the Human Aryl Hydrocarbon Receptor (AHR) Reporter Assay System (INDIGO Bioscience, #IB06001-32). AHR Reporter Cell was thawed and pre-incubated in Cell Recovery Medium (CRM) for 6 hours. […] Following 24 hours incubation, the media was removed and Luciferase Detection Reagent (LDR) added. The firefly luciferase activity was quantified using a plate reader. Results were normalized by positive and negative controls.

[2] = system: Human Nuclear Factor (erythroid-derived2)-like 2 (Nrf2); assay: Nrf2 transcription factor activity reporter assay in human cell line (INDIGO luciferase reporter); format: cell-based; settings: reporter cells; for EC50: 24 hours incubation; for Nrf2 % activation to Tapinarof at 9 μM: 24 hours, value in brackets
Description: The Nrf2 reporter assay was performed following the protocol of the Human Nuclear Factor (erythroid-derived2)-like 2 (Nrf2) Reporter Assay System (INDIGO Bioscience, #IB10001). Nrf2 Reporter Cell was thawed and pre-incubated in Cell Recovery Medium (CRM) for 6 hours. The media was then removed and the cells were incubated with Compound Screening Medium (CSM) in the absence (negative control) or presence of increasing concentrations of test compounds (typical dilution: 128 pM, 640 pM, 3.2 nM, 16 nM, 80 nM, 400 nM, […] in duplicates) for 24 hours. For positive control, cells activated with CDDO or Nrf2 agonists described in literature. Following 24 hours incubation, the media was removed and Luciferase Detection Reagent (LDR) added. The firefly luciferase activity was quantified using a plate reader. Results were normalized by positive and negative controls.

[3] = system: IL-6 gene expression in human primary M1 macrophage cells; assay: AHR-regulated IL-6 inhibition in human primary M1 macrophage (qPCR); format: cell-based; settings: LPS/IFN-gamma/GM-CSF, 24 hours; for IC50: read-out: M1 assay IL6 -IC50
Description: Human M1 macrophage was differentiated from PBMC. Briefly, at day 1, monocytes were isolated from human PBMC using EasySe Human Monocyte Enrichment Kit without CD16 Depletion (Stemcell, 19058). The isolated monocytes were seeded at 3×10^7 cells in 15 cm dish using 30 ml medium containing 50 ng/ml GM-CSF (R&D, 215-GM-050/CF). At day 5, 30 ml fresh medium containing 50 ng/ml GM-CSF was added. At day 8, 1.5×10^5 cells/well were re-seeded into 24 wells plate, and 500 ul medium containing 10 ng/ml LPS (Sigma, L7770), 20 ng/ml IFN-gamma (PeproTech, 300-02), 50 ng/ml GM-CSF and the test compounds was added. […] The IL-6 expression was inhibited with AHR agonists described in literature as the positive inhibition control, alternatively the un-stimulated cells were used as the negative inhibition control. […] The primers for human GAPDH (F: […]; R: […]) and human IL-6 (F: […]; R: […]) were used to analyze fold expression of IL-6 of GAPDH by quantitative PCR.

[4] = system: AHR-regulated gene CYP1A1; assay: AHR-regulated CYP1A1 expression in human monocytic U937 cell line (qPCR); settings: U937 cells, 16 hours, CYP1A1 relative to GAPDH
Description: To evaluate the AHR agonist activity of the test compounds, quantitative PCR analysis was used to determine expression level of the AHR-regulated gene CYP1A1 in a human monocytic U937 cell line. U937 cells were seeded at a concentration of 5×10^5 cells/well in 200 μL of growth medium in 96-well cell culture microplates. CYP1A1 expression was induced with AHR agonists described in literature as a positive control or the test compounds for 16 hours. […] Unstimulated cells were used as the negative control. Taqman probes for human CYP1A1 (Hs01054797_g1) and human GAPDH (Hs02786624_g1) were used to analyze fold expression of CYP1A1 of GAPDH.

[5] = first line of cell, read-out: AHR reEC50
[6] = second line of cell, read-out: AHR abEC50
[7] = first line of cell, read-out: Nrf2 reEC50
[8] = second line of cell, read-out: Nrf2 EC50, second line of cell (head does not name it)

CC(C)c1ncc(/C=C/c2ccccc2)cc1O [Compound 103, (E)-2-isopropyl-5-styrylpyridine-3-ol]
EC50 [1, 5]: 166 nM | EC50 [1, 6]: 241 nM | AHR % activation to Tapinarof at 1 μM [1]: 69.5% | EC50 [2, 7]: 70.8 nM | EC50 [2, 8]: 149 nM | Nrf2 % activation to Tapinarof at 9 μM [2]: 78.8% | M1 assay IL6 -max % inhibition (% to no treatment) [3]: 84.90% | IC50 [3]: 92.6 nM | CYP1A1 (% activation to Tapinarof at 1 μM) [4]: 34.0%

CC(C)c1c(O)cc(-c2nc3ccccc3o2)cc1O [Compound 49]
EC50 [1, 5]: 38100 nM | EC50 [1, 6]: 53.4 nM | AHR % activation to Tapinarof at 1 μM [1]: 104.6% | EC50 [2, 7]: 34.9 nM | EC50 [2, 8]: 73.7 nM | Nrf2 % activation to Tapinarof at 9 μM [2]: 69.7% | M1 assay IL6 -max % inhibition (% to no treatment) [3]: 90.30% | IC50 [3]: 3.14 nM | CYP1A1 (% activation to Tapinarof at 1 μM) [4]: 95.6%

Reference: US20250136556A1, “NOVEL MODULATORS OF THE ARYL HYDROCARBON RECEPTOR AND METHODS OF USE THEREOF” (Allianthera (Suzhou) Biopharmaceutical Co., Ltd., priority 2021, published 2025)
